Data reported in patent US6342531B1, “Pharmaceutical composition containing a cysteine protease inhibitor for prophylaxis and therapy of brain tissue impairment” (Senju Pharmaceutical Co., Ltd., priority 1998, dated 2002).
Non-standard residues stand in square brackets, D forms with d. Residues, ends and D or L forms follow the SMILES beside them. *: point of attachment. Nle = CCCC[C@H](N)C(=O)O; Cbz = O=C(OCc1ccccc1)*

Tests used:
[1] = Toxicity study, single oral dose, 14-day observation; format: in vivo, Wister rats; conditions: rat, oral 1000 mg/kg
Protocol: Five-week-old Wister rats (male, body weights 80-105 g) were orally given a 3.3 w/v % suspension of Compound 1 in 0.5 w/v % carboxymethylcellulose in a dose of 1000 mg as Compound 1 per kg body weight. […] Body weights were recorded before dosing and once daily for 14 days after dosing. Autopsy was performed after sacrifice by exsanguination under ether anesthesia after 14 days and the organs were grossly examined. The control group received 0.5 w/v % carboxymethylcellulose.

[2] = test system: nerve cells in the hippocampal CA1 region; assay: Effect on ischemic disorder of the brain: bilateral common carotid artery occlusion, nerve cell counts in hippocampal CA1 region; format: in vivo; conditions: gerbil, 10 min ischemia, 100 mg/kg intraperitoneally 15 min before ischemia, immediately after reperfusion, then once daily, counted 5 days after reperfusion; for ischemia-induced decrease in the number of normal nerve cells in the hippocampal CA1 region: FIG. 1; for ischemia-induced increase in the number of apoptotic nerve cells in the hippocampal CA1 region: FIG. 2
Protocol: The bilateral common carotid arteries of gerbils (male, body weights 60-80 g) were exposed under ether anesthesia. Then, in a conscious state, the carotid arteries were occluded with aneurysm clips to arrest the blood flow for 10 minutes. Ischemia was confirmed by checking the arrest of retinal blood flow with a blood flow meter (Advance laser flow meter (ALF21N), Advance Co. Ltd.) and observation of ischemic symptoms such as seizure, circling, and ptosis. After removal of the clips, reperfusion was confirmed with the blood flow meter. Five days after reperfusion, the animal was anesthetized with ether and was perfused with saline through the left ventricle for removal of blood and further with 4% formaldehyde for fixation of the brain tissue. The tissue was embedded in paraffin and thin sections were prepared and stained with hematoxylin-eosin in the routine manner. The nerve cells in the hippocampal CA1 region were observed under a light microscope and the normal nerve cells remaining in a 1.0 mm span of the hippocampal CA1 region were counted. Separately, using Apoptosis in situ Detection Kit Wako (Wako Pure Chemical Ind., Ltd.), the apoptosis in the paraffin-embedded brain tissue specimen was detected and using the light microscope, the apoptotic nerve cells per 1.0 mm span of the hippocampal CA1 region were counted.
In the normal group, the common carotid arteries were exposed but no ischemia was introduced. As the test drug, a parenteral suspension prepared as in Example 3 was administered intraperitoneally in a dose of 100 mg Compound 1 per kg body weight 15 minutes before ischemia, immediately after reperfusion, and thereafter once daily (Compound 1 administration group). In the control group and normal group, the vehicle used in Example 3 was similarly administered. As a positive control, Cbz-Val-Phe-H [MDL; S. C. Hong et al., Stroke, 25 (3), 663-669 (1994)], 100 mg/kg body weight, was similarly administered (MDL administration group).

[3] = test system: neurons; conditions: directly administered into the animal cerebral ventricle; cited from earlier work
[4] = test system: neurons; conditions: administered intraperitoneally; cited from earlier work
[5] = test system: cytopathy due to cerebral ischemia; conditions: rats, administered intravenously; cited from earlier work

SMILES: CC(C)C[C@@H](C=O)NC(=O)[C@@H](NS(=O)(=O)c1ccc(F)cc1)C(C)C [Compound 1, N-(4-fluorophenylsulfonyl)-L-valyl-L-leucinal]
- body weight gain versus control group ([1]; 14 days): no difference
- autopsy findings versus control group ([1]; autopsy after 14 days): no difference
- general condition and behavior ([1]; observed 14 days): no change
- ischemia-induced decrease in the number of normal nerve cells in the hippocampal CA1 region [2]: significantly inhibited
- ischemia-induced increase in the number of apoptotic nerve cells in the hippocampal CA1 region [2]: significantly inhibited

SMILES: CC(=O)N[C@@H](CC(C)C)C(=O)N[C@@H](CC(C)C)C(=O)N[C@H](C=O)CCCNC(=N)N [leupeptin]
- protection of neurons against damage by cerebral ischemia [3]: protects neurons against damage

SMILES: CCCC[C@@H](C=O)NC(=O)[C@H](CC(C)C)NC(=O)[C@H](CC(C)C)NC(C)=O [calpain inhibitor I] (Ac-Leu-Leu-[Nle]-aldehyde)
- protection of neurons from excitotoxic factors [4]: protect neurons from excitotoxic factors

SMILES: CC(C)[C@H](NC(=O)OCc1ccccc1)C(=O)N[C@H](C=O)Cc1ccccc1 [MDL, Cbz-Val-Phe-H] (Cbz-Val-Phe-aldehyde)
- ischemia-induced decrease in the number of normal nerve cells in the hippocampal CA1 region [2]: little inhibitory effect
- ischemia-induced increase in the number of apoptotic nerve cells in the hippocampal CA1 region [2]: little inhibitory effect
- cytopathy due to cerebral ischemia [5]: inhibited cytopathy
